Experiments:
[1] = system: E. coli ESBL4 expressing CTX-M-15; test: Broth microdilution MIC, E. coli ESBL4 CTX-M-15; assay type: cell-based; settings: fixed 4 μg/mL ceftazidime; CAMHB, 16-20 hours at 37° C.
Source text: (§1) To determine the ability of test compounds to potentiate the inhibition of the growth of bacterial strains that produce beta-lactamase enzymes, classic cell based broth microdilution MIC assays were employed. Six bacteria strains producing beta-lactamase enzymes were used: E. coli expressing the Class A Extended Spectrum Beta-Lactamase (ESBL) CTX-M-15, E. cloacae expressing the Class C P99, K. pneumoniae expressing the Class A carbapenemase KPC-3, P. aeruginosa expressing the Class B carbapenemase VIM-2, K. pneumoniae expressing the class A carbapenemase KPC-2 and the class B carbapenemase VIM-4, and S. aureus producing the Class A penicillinase PC-1. The assay was conducted in Cation Adjusted Mueller Hinton Broth (CAMHB, BD #212322, BD Diagnostic Systems, Sparks, Md.). Bacteria strains were grown for 3-5 hours in CAMBH broth. Test compounds (Examples 1-30) were added to a microtiter plate in 2-fold serial dilutions in CAMHB in a final concentration range of 32 μg/mL to 0.25 μg/ml. An overlay of CAMHB containing a Beta-lactam was added to the compounds at a final static concentration of 4 μg/ml. […] In addition to the titration of test compounds the MICs of a panel of control beta-lactams is also tested to ensure the strains are behaving consistently from test to test. Once the test compound and antibiotics are added the plates can be inoculated according to CLSI broth microdilution method. After inoculation the plates are incubated for 16-20 hours at 37° C. then the Minimal Inhibitory Concentration (MIC) of the test compound is determined visually.
(§2) Using the methodology described above, examples of the current invention were evaluated for their ability to inhibit the growth of β-lactamase-producing bacteria in the presence of a β-lactam antibiotic.
(§3) Using the methodology described above in EXAMPLE III, exemplary compounds for Formula I or Formula Ia were evaluated for their ability to inhibit the growth of β-lactamase producing bacteria in the presence of a β-lactam antibiotic.

[2] = system: K. pneumoniae 156319 expressing KPC-3; test: Broth microdilution MIC, K. pneumoniae 156319 KPC-3; assay type: cell-based; settings: fixed 4 μg/mL meropenem; CAMHB, 16-20 hours at 37° C.
Source text: as §1, §2, §3

[3] = target: T1, VIM-2 metallo-β-lactamase (Class B) (Pseudomonas aeruginosa, UniProt Q9K2N0); test: β-Lactamase inhibition, VIM-2; assay type: biochemical; settings: nitrocefin 100 μM, 486 nm; 15 min preincubation at 37° C., PBS pH 7.4
T1 construct: made in house; host or cells: E. coli BL21(DE3)
Method: For Vim-2 metallo β-lactamase, the procedure was identical with the following exceptions, first the protein was not pH adjusted to pH 5 with 50 mM sodium acetate, second, the chromatography step was changed to a 5 ml Q sepharose anion exchange column pre-equilibrated with 50 mM Hepes pH 7.5, and elution of the protein was achieved by a linear gradient of NaCl (0-600 mM). Finally, the VIM-2 purification required a second run (3rd step) on the Q sepharose anion exchange column to achieve acceptable purity (>90%).
(§4) An equal volume of diluted enzyme stock was added, and the plates were incubated at 37° C. for 15 min. Nitrocefin was used as substrate for p99 AmpC, VIM-2 and OXA-1 and dispensed into each well at a final concentration of 100 μM. Absorbance at 486 nm was immediately monitored for 10 min using a Biotek Powerwave XS2 microplate spectrophotometer using the GEN5 software package (Biotek Instruments, Winooski Vt.). In an analogous fashion, imipenem was used as substrate for Kpc-2 and Cefotaxime was used for SHV-5, while changes in absorbance upon hydrolysis of the β-lactam ring were monitored at 300 nm and 260 nm respectively in UV-transparent 96-well microtiter assay plates. Maximum rates of hydrolysis were compared to those in control wells (without inhibitors), and percentages of enzyme inhibition were calculated for each concentration of inhibitor. The concentration of inhibitor needed to reduce the initial rate of hydrolysis of substrate by 50% (IC50) was calculated as the residual activity of β-lactamase at 486 nm using GraFit version 7 kinetics software package (Erithacus Software, Surrey, UK).
(§5) Using the methodology described above, examples of the current invention were evaluated for their ability to inhibit β-lactamase enzymes from all four Ambler classifications (A through D). […] NT=Not tested.

[4] = system: K. pneumoniae A-1797 expressing KPC-2 and VIM-4; test: Broth microdilution MIC, K. pneumoniae A-1797 KPC-2/VIM-4; assay type: cell-based; settings: fixed 4 μg/mL meropenem; CAMHB, 16-20 hours at 37° C.
Source text: as §1, §2, §3

[5] = target: T2, KPC-2 β-lactamase (Class A carbapenemase) (Klebsiella pneumoniae, UniProt Q9F663); test: β-Lactamase inhibition, KPC-2; assay type: biochemical; settings: imipenem substrate, 300 nm; 15 min preincubation at 37° C., PBS pH 7.4
T2 construct: made in house; host or cells: E. coli BL21(DE3)
Method: (§6) For SHV-5, Kpc-2, p99AmpC and OXA-1 β-lactamases, E. coli BL21(DE3) bacterial cells carrying expression plasmids (expressed as native untagged proteins) for the individual β-lactamases were grown in 1 L of Superbroth (Teknova Inc. Hollister, Calif.) supplemented with 100 μg/ml kanamycin selection and 1×5052 (0.5% glycerol, 0.05% glucose and 0.2% α-lactose) at 35° C. for 18-20 hours. Cells were harvested by centrifugation (4,000×g, 4° C., 20 min), resuspended in 50 ml of 10 mM HEPES pH 7.5 ( 1/20 of the initial volume). The cells were lysed by sonication (5 pulses of 45 seconds) at 45 W on ice. The lysates were clarified by centrifugation at 10,000×g for 40 minutes at 4° C. Samples were diluted 5-fold in 50 mM sodium acetate pH 5.0, stored overnight at 4° C., after which they were centrifuged at 10,000×g for 30 minutes to clarify, and filtered through 0.45 μm filters. The samples were loaded onto a 5 ml Capto S sepharose cation exchange column (GE Healthcare) pre-equilibrated with 50 mM sodium acetate pH 5.0. The column was washed with 5 column volumes of 50 mM sodium acetate pH 5.0 to wash out unbound protein and a linear gradient of NaCl (0 to 500 mM) was used to elute the protein (over 16 CV) from the column. Fractions were assayed for β-lactamase activity using Centa (Calbiochem, Gibbstown, N.J.) or Nitrocefin (EMD Millipore chemicals, Darmstadt, Germany) as a reporter β-lactamase substrate for activity in the isolated fractions. Active fractions were pooled, concentrated and further purified by gel filtration chromatography on a Superdex 75 prep grade gel filtration column (GE Healthcare, Piscataway, N.J.) pre-equilibrated in 50 mM Hepes pH 7.5, 150 mM NaCl. Active fractions were pooled concentrated, quantitated by BCA protein determination (Thermo Scientific, Rockford, Ill.), dialyzed into PBS and frozen at −80° C. in 20% glycerol until use.
as §4, §5

[6] = system: P. aeruginosa Ps296 expressing VIM-2; test: Broth microdilution MIC, P. aeruginosa Ps296 VIM-2; assay type: cell-based; settings: fixed 4 μg/mL meropenem; CAMHB, 16-20 hours at 37° C.
Source text: as §1, §2, §3

[7] = target: T3, p99 AmpC β-lactamase (Class C) (Enterobacter cloacae, UniProt P05364); test: β-Lactamase inhibition, p99 AmpC; assay type: biochemical
T3 construct: made in house; host or cells: E. coli BL21(DE3)
Method: as §6, §4, §5

[8] = system: E. cloacae 144200 expressing Class C P99 AmpC; test: Broth microdilution MIC, E. cloacae 144200 p99 AmpC; assay type: cell-based; settings: fixed 4 μg/mL ceftazidime; CAMHB, 16-20 hours at 37° C.
Source text: as §1, §2, §3

[9] = target: T4, SHV-5 β-lactamase (Class A ESBL) (Klebsiella pneumoniae, UniProt P0A3M1); test: β-Lactamase inhibition, SHV-5; assay type: biochemical
T4 construct: made in house; host or cells: E. coli BL21(DE3)
Method: as §6, §4, §5

[10] = system: S. aureus MSSA-7 producing penicillinase PC-1; test: Broth microdilution MIC, S. aureus MSSA-7 PC-1; assay type: cell-based; settings: fixed 4 μg/mL piperacillin; CAMHB, 16-20 hours at 37° C.
Source text: as §1, §2, §3

T3 sequence (P05364 21-381): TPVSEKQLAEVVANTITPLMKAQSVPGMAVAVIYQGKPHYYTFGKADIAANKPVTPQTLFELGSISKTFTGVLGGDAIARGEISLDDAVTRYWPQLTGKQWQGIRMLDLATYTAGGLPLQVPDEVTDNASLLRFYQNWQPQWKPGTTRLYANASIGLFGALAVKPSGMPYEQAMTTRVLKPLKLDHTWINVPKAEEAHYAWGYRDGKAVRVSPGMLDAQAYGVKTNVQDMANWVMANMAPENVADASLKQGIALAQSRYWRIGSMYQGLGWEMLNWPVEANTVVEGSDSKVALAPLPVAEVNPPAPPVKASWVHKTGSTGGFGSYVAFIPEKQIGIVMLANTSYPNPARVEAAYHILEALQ
T2 sequence (Q9F663 25-293, looked up): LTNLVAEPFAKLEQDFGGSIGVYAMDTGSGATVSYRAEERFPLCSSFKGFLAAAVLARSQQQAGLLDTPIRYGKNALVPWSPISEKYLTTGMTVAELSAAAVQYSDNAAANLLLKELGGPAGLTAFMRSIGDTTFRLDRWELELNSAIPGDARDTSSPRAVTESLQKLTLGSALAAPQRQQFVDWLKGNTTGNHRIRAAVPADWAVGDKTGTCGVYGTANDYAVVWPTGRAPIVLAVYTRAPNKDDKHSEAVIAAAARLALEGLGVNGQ
T4 sequence (P0A3M1 22-286): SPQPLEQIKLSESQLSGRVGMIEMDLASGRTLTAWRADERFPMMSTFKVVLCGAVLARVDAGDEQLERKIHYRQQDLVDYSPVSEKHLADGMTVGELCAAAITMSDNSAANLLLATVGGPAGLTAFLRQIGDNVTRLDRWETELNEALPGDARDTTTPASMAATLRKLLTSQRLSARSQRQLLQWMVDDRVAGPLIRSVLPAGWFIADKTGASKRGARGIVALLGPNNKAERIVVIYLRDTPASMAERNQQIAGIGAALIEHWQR

Row | Structure (SMILES) | MIC of example compound in presence of fixed β-lactam: Fixed CAZ, E. coli ESBL4 CTX-M-15 [1] | MIC of example compound in presence of fixed β-lactam: Fixed Mero, K. P. 156319 KPC-3 [2] | IC50 [3] | MIC of example compound in presence of fixed β-lactam: Fixed Mero, K. P. A-1797 KPC-2 VIM-4 [4] | IC50 [5] | MIC of example compound in presence of fixed β-lactam: Fixed Mero, P. aerug. Ps296 VIM-2 [6] | IC50 [7] | MIC of example compound in presence of fixed β-lactam: Fixed CAZ, E. cl. 144200 p99 AmpC [8] | IC50 [9] | MIC of example compound in presence of fixed β-lactam: Fixed Pip, S. aureus MSSA-7 PC-1 [10]
1 | N=C(N)N1CCC(CC(=O)N[C@H]2Cc3cccc(C(=O)O)c3OB2O)CC1 [Example 33, 3-[2-(1-Carbamimidoyl-piperidin-4-yl)-acetylamino]-2-hydroxy-3,4-dihydro-2H-benzo[e][1,2]oxaborinine-8-carboxylic acid] | C (the MIC in the presence of <4 μg/mL of a β-lactamase inhibitor) | B (the MIC in the presence of between 8 and 32 μg/mL of a β-lactamase inhibitor) | 1000 to 10000 nM | B (the MIC in the presence of between 8 and 32 μg/mL of a β-lactamase inhibitor) | 100 to 1000 nM | A (an MIC of the fixed β-lactam antibiotic in the presence of >32 μg/mL of a β-lactamase inhibitor) | < 100 nM | C (the MIC in the presence of <4 μg/mL of a β-lactamase inhibitor) | < 100 nM | C (the MIC in the presence of <4 μg/mL of a β-lactamase inhibitor)
2 | NCCCN1CCC(CC(=O)N[C@H]2Cc3cccc(C(=O)O)c3OB2O)CC1 [Example 42, 3-{2-[1-(3-Amino-propyl)-piperidin-4-yl]-acetylamino}-2-hydroxy-3,4-dihydro-2H-benzo[e][1,2]oxaborinine-8-carboxylic acid] | C (the MIC in the presence of <4 μg/mL of a β-lactamase inhibitor) | C (the MIC in the presence of <4 μg/mL of a β-lactamase inhibitor) | 1000 to 10000 nM | A (an MIC of the fixed β-lactam antibiotic in the presence of >32 μg/mL of a β-lactamase inhibitor) | < 100 nM | B (the MIC in the presence of between 8 and 32 μg/mL of a β-lactamase inhibitor) | < 100 nM | C (the MIC in the presence of <4 μg/mL of a β-lactamase inhibitor) | < 100 nM | C (the MIC in the presence of <4 μg/mL of a β-lactamase inhibitor)
3 | N=C(N)NCCN1CCN(CC(=O)N[C@H]2Cc3cccc(C(=O)O)c3OB2O)C(=O)C1 [Example 38, 3-{2-[4-(2-Guanidino-ethyl)-2-oxo-piperazin-1-yl]-acetylamino}-2-hydroxy-3,4-dihydro-2H-benzo[e][1,2]oxaborinine-8-carboxylic acid] | C (the MIC in the presence of <4 μg/mL of a β-lactamase inhibitor) | C (the MIC in the presence of <4 μg/mL of a β-lactamase inhibitor) | 1000 to 10000 nM | A (an MIC of the fixed β-lactam antibiotic in the presence of >32 μg/mL of a β-lactamase inhibitor) | 1000 to 10000 nM | B (the MIC in the presence of between 8 and 32 μg/mL of a β-lactamase inhibitor) | < 100 nM | C (the MIC in the presence of <4 μg/mL of a β-lactamase inhibitor) | 100 to 1000 nM | –

Reference: patent US10294248B2, “Beta-lactamase inhibitors” (VenatoRx Pharmaceuticals, Inc., priority 2013, dated 2019)
